In brackets after ≈: the same amount, converted by molar mass.
Key:
Enterobacter cloacae [1] = assay: In vitro antimicrobial activity against Enterobacter 1321 E; assay type: functional
Enterobacter cloacae [2] = assay: In vitro antimicrobial activity against Enterobacter cloacae P99; assay type: functional
Staphylococcus aureus [3] = assay: In vitro antimicrobial activity against Staphylococcus aureus 285; assay type: functional
Staphylococcus aureus [4] = assay: In vitro antimicrobial activity against Staphylococcus aureus 503; assay type: functional
Pseudomonas aeruginosa [5] = assay: In vitro antimicrobial activity against Pseudomonas aeruginosa 9027; assay type: functional
Klebsiella oxytoca = assay: In vitro antimicrobial activity against Klebsiella oxytoca 1082; assay type: functional
Escherichia coli [6] = assay: In vitro antimicrobial activity against Escherichia coli DC 2; assay type: functional
Streptococcus pyogenes [7] = assay: In vitro antimicrobial activity against Streptococcus pyogenes 77A; assay type: functional
Enterococcus faecium = assay: In vitro antimicrobial activity against Streptococcus faecium MD 8b; assay type: functional
Escherichia coli [8] = assay: In vitro antimicrobial activity against Escherichia coli DC 0; assay type: functional
Pseudomonas aeruginosa [9] = assay: In vitro antimicrobial activity against Pseudomonas aeruginosa 1592 E; assay type: functional
Pseudomonas aeruginosa [10] = assay: In vitro antimicrobial activity against Pseudomonas aeruginosa 1771; assay type: functional
Streptococcus pyogenes [11] = assay: In vitro antimicrobial activity against Streptococcus pyogenes SG 511; assay type: functional
Staphylococcus aureus [12] = assay: In vitro antimicrobial activity against Methicillin resistant Staphylococcus aureus (MRSA); assay type: functional
Klebsiella aerogenes = assay: In vitro antimicrobial activity against Klebsiella aerogenes 1522 E; assay type: functional
Salmonella typhimurium = assay: In vitro antimicrobial activity against Salmonella Typhimurium; assay type: functional, Salmonella enterica subsp. enterica serovar Typhimurium; conditions: Salmonella enterica
Streptococcus pyogenes [13] = assay: Compound has been evaluated for in vitro antimicrobial activity against Streptococcus pyogenes A 308; assay type: functional
Pseudomonas aeruginosa [14] = assay: In vitro antimicrobial activity against Pseudomonas aeruginosa 1771 M; assay type: functional
Escherichia coli [15] = assay: In vitro antimicrobial activity against Escherichia coli TEM; assay type: functional
Escherichia coli [16] = assay: In vitro antimicrobial activity against Escherichia coli 055; assay type: functional
Escherichia coli [17] = assay: In vitro antimicrobial activity against Escherichia coli 1507E; assay type: functional
Streptococcus pyogenes [18] = assay: In vitro antimicrobial activity against Streptococcus pyogenes A 308; assay type: functional

`CO/N=C(/C(=O)NC1C(=O)N2C(C(=O)[O-])=C(C[n+]3cccc4c3CCC4)CSC12)c1csc(N)n1` (stereo not drawn) gave an MIC (Enterobacter cloacae [1]) of 0.013 µg/mL (≈ 0.0253 µM), an MIC (Enterobacter cloacae [2]) of 3.12 µg/mL (≈ 6.07 µM) and an MIC (Staphylococcus aureus [3]) of 0.781 µg/mL (≈ 1.52 µM). The MIC (Staphylococcus aureus [4]) was 0.098 µg/mL (≈ 0.19 µM), the MIC (Pseudomonas aeruginosa [5]) was 3.12 µg/mL (≈ 6.07 µM) and the MIC (Klebsiella oxytoca) was 1.56 µg/mL (≈ 3.04 µM). The MIC (Escherichia coli [6]) was 0.013 µg/mL (≈ 0.0253 µM), the MIC (Streptococcus pyogenes [7]) was 0.007 µg/mL (≈ 0.0136 µM) and the MIC (Enterococcus faecium) was 1.56 µg/mL (≈ 3.04 µM). It also gave an MIC (Escherichia coli [8]) of 0.013 µg/mL (≈ 0.0253 µM), an MIC (Pseudomonas aeruginosa [9]) of 1.56 µg/mL (≈ 3.04 µM) and an MIC (Pseudomonas aeruginosa [10]) of 0.781 µg/mL (≈ 1.52 µM). It also gave an MIC (Streptococcus pyogenes [11]) of 0.391 µg/mL (≈ 0.76 µM), an MIC (Staphylococcus aureus [12]) of 25 µg/mL (≈ 48.6 µM) and an MIC (Klebsiella aerogenes) of 0.025 µg/mL (≈ 0.0486 µM). For the same compound, the MIC (Salmonella typhimurium) was 0.025 µg/mL (≈ 0.0486 µM), the MIC (Streptococcus pyogenes [13]) was 0.007 µg/mL (≈ 0.0136 µM) and the MIC (Pseudomonas aeruginosa [14]) was 0.195 µg/mL (≈ 0.379 µM). It also gave an MIC (Escherichia coli [15]) of 0.049 µg/mL (≈ 0.0952 µM), an MIC (Escherichia coli [16]) of 0.025 µg/mL (≈ 0.0486 µM) and an MIC (Escherichia coli [17]) of 0.025 µg/mL (≈ 0.0486 µM).
`CO/N=C(/C(=O)N[C@@H]1C(=O)N2C(C(=O)[O-])=C(C[n+]3cccc(-c4cc(CO)nn4CCO)c3)CS[C@H]12)c1csc(N)n1` was tested, and the MIC (Enterobacter cloacae [1]) was 0.098 µg/mL (≈ 0.159 µM), the MIC (Enterobacter cloacae [2]) was over 50 µg/mL and the MIC (Staphylococcus aureus [3]) was 6.25 µg/mL (≈ 10.2 µM). The MIC (Staphylococcus aureus [4]) was 1.56 µg/mL (≈ 2.54 µM), the MIC (Pseudomonas aeruginosa [5]) was 25 µg/mL (≈ 40.7 µM) and the MIC (Klebsiella oxytoca) was 12.5 µg/mL (≈ 20.3 µM). It also gave an MIC (Escherichia coli [6]) of 0.098 µg/mL (≈ 0.159 µM), an MIC (Streptococcus pyogenes [7]) of 0.049 µg/mL (≈ 0.0797 µM) and an MIC (Enterococcus faecium) of 12.5 µg/mL (≈ 20.3 µM). For the same compound, the MIC (Escherichia coli [8]) was 0.195 µg/mL (≈ 0.317 µM), the MIC (Pseudomonas aeruginosa [9]) was 12.5 µg/mL (≈ 20.3 µM) and the MIC (Pseudomonas aeruginosa [10]) was 6.25 µg/mL (≈ 10.2 µM). It also gave an MIC (Streptococcus pyogenes [11]) of 6.25 µg/mL (≈ 10.2 µM), an MIC (Staphylococcus aureus [12]) of 25 µg/mL (≈ 40.7 µM) and an MIC (Klebsiella aerogenes) of 0.195 µg/mL (≈ 0.317 µM). It also gave an MIC (Salmonella typhimurium) of 0.391 µg/mL (≈ 0.636 µM), an MIC (Streptococcus pyogenes [18]) of 0.049 µg/mL (≈ 0.0797 µM) and an MIC (Pseudomonas aeruginosa [14]) of 0.781 µg/mL (≈ 1.27 µM). The MIC (Escherichia coli [15]) was 0.781 µg/mL (≈ 1.27 µM), the MIC (Escherichia coli [16]) was 0.098 µg/mL (≈ 0.159 µM) and the MIC (Escherichia coli [17]) was 0.391 µg/mL (≈ 0.636 µM).
For `CO/N=C(/C(=O)N[C@@H]1C(=O)N2C(C(=O)[O-])=C(C[n+]3cccc(-c4cc(CO)[nH]n4)c3)CS[C@H]12)c1csc(N)n1`, the MIC (Enterobacter cloacae [1]) was 0.049 µg/mL (≈ 0.0859 µM), the MIC (Enterobacter cloacae [2]) was over 12.5 µg/mL and the MIC (Staphylococcus aureus [3]) was 1.56 µg/mL (≈ 2.74 µM). For the same compound, the MIC (Staphylococcus aureus [4]) was 0.391 µg/mL (≈ 0.685 µM), the MIC (Pseudomonas aeruginosa [5]) was 6.25 µg/mL (≈ 11 µM) and the MIC (Klebsiella oxytoca) was 3.12 µg/mL (≈ 5.48 µM). The MIC (Escherichia coli [6]) was 0.025 µg/mL (≈ 0.0438 µM), the MIC (Streptococcus pyogenes [7]) was 0.013 µg/mL (≈ 0.0228 µM) and the MIC (Enterococcus faecium) was 3.12 µg/mL (≈ 5.48 µM). It also gave an MIC (Escherichia coli [8]) of 0.049 µg/mL (≈ 0.0859 µM), an MIC (Pseudomonas aeruginosa [9]) of 3.12 µg/mL (≈ 5.48 µM) and an MIC (Pseudomonas aeruginosa [10]) of 1.56 µg/mL (≈ 2.74 µM). The MIC (Streptococcus pyogenes [11]) was 1.56 µg/mL (≈ 2.74 µM), the MIC (Klebsiella aerogenes) was 0.049 µg/mL (≈ 0.0859 µM) and the MIC (Salmonella typhimurium) was 0.098 µg/mL (≈ 0.172 µM). For the same compound, the MIC (Streptococcus pyogenes [18]) was 0.025 µg/mL (≈ 0.0438 µM), the MIC (Pseudomonas aeruginosa [14]) was 0.391 µg/mL (≈ 0.685 µM) and the MIC (Escherichia coli [15]) was 0.195 µg/mL (≈ 0.342 µM). The MIC (Escherichia coli [16]) was 0.049 µg/mL (≈ 0.0859 µM) and the MIC (Escherichia coli [17]) was 0.098 µg/mL (≈ 0.172 µM).
`CO/N=C(/C(=O)N[C@@H]1C(=O)N2C(C(=O)[O-])=C(C[n+]3cccc(-c4cc[nH]n4)c3)CS[C@H]12)c1csc(N)n1` gave an MIC (Enterobacter cloacae [1]) of 0.098 µg/mL (≈ 0.181 µM), an MIC (Enterobacter cloacae [2]) of over 25 µg/mL and an MIC (Staphylococcus aureus [3]) of 3.12 µg/mL (≈ 5.78 µM). It also gave an MIC (Staphylococcus aureus [4]) of 0.781 µg/mL (≈ 1.44 µM), an MIC (Pseudomonas aeruginosa [5]) of 25 µg/mL (≈ 46.2 µM) and an MIC (Klebsiella oxytoca) of 6.25 µg/mL (≈ 11.6 µM). The MIC (Escherichia coli [6]) was 0.049 µg/mL (≈ 0.0906 µM), the MIC (Streptococcus pyogenes [7]) was 0.025 µg/mL (≈ 0.0462 µM) and the MIC (Enterococcus faecium) was 6.25 µg/mL (≈ 11.6 µM). For the same compound, the MIC (Escherichia coli [8]) was 0.098 µg/mL (≈ 0.181 µM), the MIC (Pseudomonas aeruginosa [9]) was 12.5 µg/mL (≈ 23.1 µM) and the MIC (Pseudomonas aeruginosa [10]) was 6.25 µg/mL (≈ 11.6 µM). For the same compound, the MIC (Streptococcus pyogenes [11]) was 3.12 µg/mL (≈ 5.78 µM), the MIC (Klebsiella aerogenes) was 0.098 µg/mL (≈ 0.181 µM) and the MIC (Salmonella typhimurium) was 0.195 µg/mL (≈ 0.361 µM). For the same compound, the MIC (Streptococcus pyogenes [18]) was 0.049 µg/mL (≈ 0.0906 µM), the MIC (Pseudomonas aeruginosa [14]) was 3.12 µg/mL (≈ 5.78 µM) and the MIC (Escherichia coli [15]) was 0.195 µg/mL (≈ 0.361 µM). The MIC (Escherichia coli [16]) was 0.049 µg/mL (≈ 0.0906 µM) and the MIC (Escherichia coli [17]) was 0.195 µg/mL (≈ 0.361 µM).
Work on `CO/N=C(/C(=O)N[C@@H]1C(=O)N2C(C(=O)[O-])=C(C[n+]3cccc(-c4cc(C)[nH]n4)c3)CS[C@H]12)c1csc(N)n1` yielded an MIC (Enterobacter cloacae [1]) of 0.013 µg/mL (≈ 0.0234 µM), an MIC (Enterobacter cloacae [2]) of 50 µg/mL (≈ 90.2 µM) and an MIC (Staphylococcus aureus [3]) of 0.781 µg/mL (≈ 1.41 µM). The MIC (Staphylococcus aureus [4]) was 0.195 µg/mL (≈ 0.352 µM), the MIC (Pseudomonas aeruginosa [5]) was 6.25 µg/mL (≈ 11.3 µM) and the MIC (Klebsiella oxytoca) was 1.56 µg/mL (≈ 2.82 µM). It also gave an MIC (Escherichia coli [6]) of 0.013 µg/mL (≈ 0.0234 µM), an MIC (Streptococcus pyogenes [7]) of 0.007 µg/mL (≈ 0.0126 µM) and an MIC (Enterococcus faecium) of 3.12 µg/mL (≈ 5.63 µM). For the same compound, the MIC (Escherichia coli [8]) was 0.025 µg/mL (≈ 0.0451 µM), the MIC (Pseudomonas aeruginosa [9]) was 3.12 µg/mL (≈ 5.63 µM) and the MIC (Pseudomonas aeruginosa [10]) was 1.56 µg/mL (≈ 2.82 µM). It also gave an MIC (Streptococcus pyogenes [11]) of 0.781 µg/mL (≈ 1.41 µM), an MIC (Staphylococcus aureus [12]) of 25 µg/mL (≈ 45.1 µM) and an MIC (Klebsiella aerogenes) of 0.049 µg/mL (≈ 0.0883 µM). The MIC (Salmonella typhimurium) was 0.098 µg/mL (≈ 0.177 µM), the MIC (Streptococcus pyogenes [18]) was 0.007 µg/mL (≈ 0.0126 µM) and the MIC (Pseudomonas aeruginosa [14]) was 0.781 µg/mL (≈ 1.41 µM). It also gave an MIC (Escherichia coli [15]) of 0.098 µg/mL (≈ 0.177 µM), an MIC (Escherichia coli [16]) of 0.025 µg/mL (≈ 0.0451 µM) and an MIC (Escherichia coli [17]) of 0.098 µg/mL (≈ 0.177 µM).
With `CO/N=C(/C(=O)N[C@@H]1C(=O)N2C(C(=O)[O-])=C(C[n+]3cccc(-c4cc(CO)nn4C)c3)CS[C@H]12)c1csc(N)n1` the MIC (Enterobacter cloacae [1]) was 0.049 µg/mL (≈ 0.0838 µM), the MIC (Enterobacter cloacae [2]) was over 25 µg/mL and the MIC (Staphylococcus aureus [3]) was 3.12 µg/mL (≈ 5.35 µM). The MIC (Staphylococcus aureus [4]) was 0.781 µg/mL (≈ 1.34 µM), the MIC (Pseudomonas aeruginosa [5]) was 25 µg/mL (≈ 42.8 µM) and the MIC (Klebsiella oxytoca) was 6.25 µg/mL (≈ 10.7 µM). The MIC (Escherichia coli [6]) was 0.049 µg/mL (≈ 0.0838 µM), the MIC (Streptococcus pyogenes [7]) was 0.025 µg/mL (≈ 0.0428 µM) and the MIC (Enterococcus faecium) was 6.25 µg/mL (≈ 10.7 µM). It also gave an MIC (Escherichia coli [8]) of 0.049 µg/mL (≈ 0.0838 µM), an MIC (Pseudomonas aeruginosa [9]) of 12.5 µg/mL (≈ 21.4 µM) and an MIC (Pseudomonas aeruginosa [10]) of 3.12 µg/mL (≈ 5.35 µM). The MIC (Streptococcus pyogenes [11]) was 3.12 µg/mL (≈ 5.35 µM), the MIC (Klebsiella aerogenes) was 0.098 µg/mL (≈ 0.168 µM) and the MIC (Salmonella typhimurium) was 0.195 µg/mL (≈ 0.334 µM). The MIC (Streptococcus pyogenes [18]) was 0.049 µg/mL (≈ 0.0838 µM), the MIC (Pseudomonas aeruginosa [14]) was 0.391 µg/mL (≈ 0.669 µM) and the MIC (Escherichia coli [15]) was 0.195 µg/mL (≈ 0.334 µM). For the same compound, the MIC (Escherichia coli [16]) was 0.049 µg/mL (≈ 0.0838 µM) and the MIC (Escherichia coli [17]) was 0.098 µg/mL (≈ 0.168 µM).

— ChEMBL document CHEMBL1132901, “Synthesis and structure-activity relationships of quaternary ammonium cephalosporins with 3-pyrazolylpyridinium derivatives” (2000)
